Laboratory results taken from patent publication US8110681B2, “Compounds for the treatment of spinal muscular atrophy and other uses” (The United States of America as represented by the …, priority 2006, dated 2012).

Key:
[1] = system: SMN2-linked luciferase-reporter gene construct; assay: SMN splice reporter assay (SMN2-linked luciferase reporter, Example 10); format: cell-based; conditions: cervical carcinoma cell lines with SMN2-luciferase reporter
Method in brief: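 Cervical carcinoma cells stably carrying an SMN2–luciferase splice reporter, in which luciferase is in frame only when SMN2 exon 7 is included, were treated with compound. Luciferase activity was read and expressed as fold increase over untreated transformed cells.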

[2] = system: luciferase reporter containing the UAG stop codon; assay: Translational read-through luciferase reporter assay, UAG stop codon; format: cell-based; conditions: read-out: MaxFold Increase
Description: This assay is described in detail in WO 01/44516 A2. This is a cell-based luciferase reporter assay designed to detect translational read-through via insertion of a translational stop codon within the luciferase coding sequence. In the presence of compounds that promote read-through of translational stop codons, active luciferase is produced and detected via chemiluminescence. We have shown that indoprofen analogs are active in two versions of this assay—one containing a UGA stop codon and one containing a UAG stop codon. The data in the table is from the luciferase reporter containing the UAG stop codon. This is the first stop codon downstream of the improper splice junction between exons 6 and 8 in the human SMN2 transcript.

SMN protein = conditions: cited from earlier work
SMA model mouse fetuses = conditions: administered in utero; cited from earlier work

## CC(C(=O)O)c1ccc(N2Cc3ccccc3C2=O)cc1 (centres unmarked) [Indoprofen]
[1]
  luciferase activity in SMN splice reporter assay: increases luciferase activity
[2]
  maximal fold induction: 2.3
SMN protein; SMA patient fibroblasts
  production of SMN from the endogenous SMN2 gene: increase in production of SMN
SMN protein; cultured cells, Lunn et al. 2004
  level of expression of SMN protein: increases the level of expression of SMN protein
SMA model mouse fetuses
  survival of SMA model mouse fetuses: increase survival
